Experimental data from patent US7189742B2, “Piperidin-2,6-dione bisulphate salts and their use for the treatment of stress related affective disorders” (Prestwick Pharmaceuticals, Inc., priority 2001, dated 2007).
Structures can show the parent of a compound that is named as a salt. Where two headings read alike, the source gives them in different places.

How the values were obtained:
Male Wistar rats [1] = settings: earlier studies, cited from earlier work
[2] = Body weights, behaviour and withdrawal signs in the CMS study; type: in vivo, rat; settings: for effect of chronic treatment on body weights: 5 weeks, imipramine 10 mg/kg i.p., AGN 2979 bisulphate 1, 4, 16 mg/kg p.o.; for signs of withdrawal after cessation of treatment: stressed or control animals, one week after cessation
Procedure: (§1) Male Wistar rats were brought into the laboratory 2 months before the start of the experiment, at which time they weighed approx. 300 g. Except as described below, all animals were singly housed, with food and water freely available, and maintained on a 12-hour light/dark. The animals were first trained to consume a 1% sucrose solution. Training consisted of nine 1-hour baseline tests in which sucrose was presented in pre-weighed bottles, in the home cage, and, following 14 hours food and water deprivation; the sucrose intake was measured by weighing the pre-weighed bottles at the end of the test. Subsequently, sucrose consumption was monitored, under similar conditions, at weekly intervals throughout the whole experiment.
(§2) On the basis of their sucrose intakes in the final baseline test, the animals were divided into two matched groups. One group of animals was subjected to a chronic mild stress (“CMS”) procedure for a period of 9 consecutive weeks. Each week of stress regime consisted of: two periods of food or water deprivation, two periods of 45 degree cage tilt, two periods of intermittent illumination (lights on and off every 2 hours), two periods of soiled cage (250 ml water in sawdust bedding), two periods of paired housing, two periods of low intensity stroboscopic illumination, and two periods of no stress. All stressors were of 10–14 hours duration and were applied individually and continuously, day and night. Control animals were housed in a separate room and had no contact with the stressed animals. They were deprived of food and water for the 14 hours preceding each sucrose test, but otherwise food and water were freely available in the home cage. […] After five weeks, all treatments were terminated and after one week of withdrawal a final sucrose test was carried out. Stress was continued throughout the period of treatment and withdrawal.

Male Wistar rats [3] = experiment: Chronic mild stress (CMS) model, consumption of 1% sucrose solution; type: in vivo, rat; settings: for consumption of sucrose solution one week after withdrawal from treatment: all drug-treated groups, control and stressed, stress continued; for consumption of sucrose solution in control animals / sucrose intake in stressed animals (treatment effect): 5 weeks
Procedure: as §1, §2
Chronic mild stress causes a gradual decrease in the consumption of 1% sucrose solution. In the final baseline test, all animals drank approximately 12 g of sucrose solution. Following initial three weeks of stress, intakes remained at the same level in control animals but fell to 7.5 (±0.3) g in stressed animals. Such a difference between control and stressed animals treated with vehicle, persisted at similar level for the remainder of the experiment [Group effect: F(1,98)=67.256; P<0.001].

[4] = cited from earlier work
human patients = settings: cited from earlier work; for treatment of anxiety and depression: about 4 mg/kg/day (200–400 mg/day for human patients)
tryptophan hydroxylase = settings: no method or data given; cited from earlier work
subject = experiment: Single subject with obstructive sleep apnoea, oral maintenance treatment; type: in vivo, human
Procedure: A subject, height 178 cm and weighing 90 kilograms having had persistent awakening episodes of obstructive sleep apnoea (manifested by nocturnal choking) had been treated for several years with AGN 2979 hydrochloride, initially at a daily oral dose level of 120 mg and subsequently at a single oral maintenance dose of 120 mg every 4 days. […] The patient also reports that previous regular bouts of seasickness have been not recurred since treatment with AGN 2979 bisulphate.

[5] = Effect of AGN 2979 bisulphate on rat weight (0.36% in diet); type: in vivo, Male Spraque-Dawley rats; settings: after initial period of 3 or 4 days, about 230 mg/kg
Procedure: 4 Male Spraque-Dawley rats were fed with their standard laboratory diet to which had been added 0.36% AGN 2979 bisulphate for a period of 9 days and their weight monitored on a daily basis and compared with 2 control rats receiving the standard laboratory diet without the bisulphate. For a rat weighing 360 g and consuming 23 g of the diet, the amount of AGN 2979 bisulphate consumed was about 230 mg/kg. The results are shown in Table 1 below, in which the bisulphate is identified as “AGN 2979 BS”. […] In particular, the test rats lost or merely maintained their body weight. The weight gains after an initial 3 day period for the two control rats and for test rats 3 and 6 are shown graphically in FIG. 1 and the weight gains for all 6 rats after an initial 4 day period are shown in FIG. 2.

[6] = stressed animals, imipramine 10 mg/kg i.p. daily
[7] = single oral maintenance dose of 65 mg every two days, one subject
[8] = stressed animals, 4 mg/kg p.o. daily

For `O=C1CC2(CCCC2)CC(=O)N1CCCCN1CCN(c2ncccn2)CC1` [buspirone], the “efficacy against CMS-induced anhedonia when doses increased above threshold active ones” value (Male Wistar rats [1]) is given as “not more effective”.

In the case of `CN(C)CCCN1c2ccccc2CCc2ccccc21` [imipramine], the “effect of chronic treatment on body weights” value ([2]; control and stressed animals) is listed as “no significant effect on body weights”, the “signs of withdrawal after cessation of treatment” value [2] is listed as “no signs of withdrawal were observed” and the “effects in CMS model at higher dose (magnitude and time-course)” value (Male Wistar rats [1]; imipramine 20 mg/kg per day) is listed as “caused similar effects”. For the same compound, the “consumption of sucrose solution one week after withdrawal from treatment” value (Male Wistar rats [3]) was “comparable to that observed in Week 5 of treatment”, the “consumption of sucrose solution in control animals” value (Male Wistar rats [3]; imipramine 10 mg/kg i.p. daily) was “not changed” and the “onset of significant increase of sucrose intake” value (Male Wistar rats [3]; [6]) was “after three weeks of treatment”. The “sucrose intake after five weeks of treatment versus vehicle-treated control animals” value (Male Wistar rats [3]; [6]) was “no significant differences between drug-treated stressed and vehicle-treated control animals” and the “sucrose intake in stressed animals (treatment effect)” value (Male Wistar rats [3]; [6]) was “gradual increase of sucrose intake”.

For `COc1cccc(C2(CCCN(C)C)C(=O)NC(=O)CC2(C)C)c1` (stereo not shown) [AGN 2979 hydrochloride, 3(3-methoxyphenyl)-3-(3-dimethylaminopropyl)-4,4-dimethylpiperidine-2,6-dione], the post-mortem examination finding ([4]; 200 mg/kg/day p.o., rats, 1 year, not detected by routine transaminase determinations) is given as “hepatocyte changes”, the weight loss ([4]; 200 mg/kg/day p.o., rats, over the 1-year period) is given as 40% and the “weight of test rats compared with control rats” value ([4]; 200 mg/kg, previous experiments) is given as “continuing weight disparity (loss)”. The “anxiolytic properties at FDA permitted dose” value (human patients; 1 mg b.i.d. (about 30 μg/kg/day), clinical study by Cutler et al) was “only marginally effective anxiolytic properties”, the “treatment of anxiety and depression” value (human patients) was “effective in alleviating depression” and the “treatment of anxiety and depression” value (human patients; listed as hydrochloride salt of AGN 2979) was “effective”. For the same compound, the “adverse effects following discontinuation of chronic administration” value (human patients; previous clinical observations) was “does not cause any adverse effects following discontinuation”.

For `CN(C)CCC=C1c2ccccc2CCc2ccccc21` [amitriptyline], the “efficacy against CMS-induced anhedonia when doses increased above threshold active ones” value (Male Wistar rats [1]) is listed as “not more effective”.

For `COc1cccc(C2(CCCN(C)C)C(=O)NC(=O)CC2(C)C)c1` (stereo not shown) [AGN 2979 bisulphate, 3(3-methoxyphenyl)-3-(3-dimethylaminopropyl)-4,4-dimethyl-piperidine-2,6-dione bisulphate], the “activation of tryptophan hydroxylase by metabolic inhibitors (guanidine, sodium cyanide)” value (tryptophan hydroxylase) is given as “blocked”, the behavioural impairments ([2]; 16 mg/kg p.o., control and stressed animals, disappeared at end of third week) is given as “sedation, hypoactivity (but not catalepsy) and hyporeactivity to handling and drug injections” and the “effect of chronic treatment on body weights” value ([2]; control and stressed animals) is given as “no significant effect on body weights”. For the same compound, the “signs of withdrawal after cessation of treatment” value [2] was “no signs of withdrawal were observed”, the “nocturnal choking after suspension of administration” value (subject; administration suspended, one subject) was “returned after three weeks” and the bouts of seasickness (subject; patient report, since treatment) was “not recurred”. The “awakening episodes of obstructive sleep apnoea” value (subject; [7]) was “continued absence of awakening episodes”, the side effects (subject; [7]) was “no side effects” and the “weight gain of test rats versus control rats” value [5] was “the same as that of the control rats”. For the same compound, the “consumption of sucrose solution one week after withdrawal from treatment” value (Male Wistar rats [3]) was “comparable to that observed in Week 5 of treatment”, the “consumption of sucrose solution in control animals” value (Male Wistar rats [3]; any of three doses 1, 4 and 16 mg/kg p.o. daily) was “not changed” and the “activity against stress-induced deficit in sucrose consumption” value (from here on “activity against stress-induced deficit”) (Male Wistar rats [3]; stressed animals, 1 mg/kg p.o. daily) was “ineffective”. The “activity against stress-induced deficit” value (Male Wistar rats [3]; [8]) was “active”, the “onset of significant increase of sucrose intake” value (Male Wistar rats [3]; [8]) was “within the first week of treatment” and the “sucrose solution drunk at end of treatment (Week 5) versus vehicle-treated controls” value (Male Wistar rats [3]; [8]) was “comparable to that of vehicle-treated controls”. For the same compound, the “activity against stress-induced deficit” value (Male Wistar rats [3]; stressed animals, 16 mg/kg p.o. daily) was “ineffective” and the “sucrose intake in stressed animals (treatment effect)” value (Male Wistar rats [3]; stressed animals, 1, 4 and 16 mg/kg p.o. daily, overall) was “gradual increase of sucrose intake”.
